Laboratory results from patent publication US8377883B2, “Peptide for anti-angiogenesis and use thereof” (Beijing Institute for Cancer Research, priority 2006, dated 2013).

Key:
[1] = test system: human umbilical vein endothelial cells (HUVECs); assay: MTT proliferation of HUVECs; assay type: cell-based; conditions: 25 μg/ml PBS, MTT at 24, 48, 72, 96 hours
Method: In order to further investigate the effects of FpAT on the proliferation of various vascular endothelial cells, a cell proliferation suppression experiment was carried out using MTT method in this example.
Human umbilical cord samples (obtained from Beijing Obstetrics & Gynecology Hospital) was digested with 0.1% collagenase I (available from GIBCO BRL company), followed by a centrifugation (1000 rpm, 10 minutes) to collect human umbilical vein endothelial cells (HUVECs). After suspended in 20% FCS/RPMI1640, the cells were transferred into plastic bottles for culture in CO2 incubator (37° C., 5% CO2). Twelve hours later, unattached cells were discarded by changing medium, and then the remaining cells were cultured conventionally with the medium changed every 3 days. The cultured HUVECs were digested with 0.04% trypsin-EDTA, and inoculated into 96-well plate at 2×10^3 cells/well. After 24 hours of culture, the vehicle (PBS) and FpAT (25 μg/ml PBS) were added separately, with 4 parallel wells per group. […] After mixed well, OD value (measured at a wavelength of 570 nm) of each well was measured in a microplate reader, and the cell suppression rates were calculated according to the following formula: cell suppression rate=(mean OD value of blank control group-mean OD value of treated group)/mean OD value of blank control group×100%.

[2] = test system: mouse liver cancer H22 cells; assay: Tumor suppression in liver cancer H22 cells tumor-bearing mouse model (Example 4); assay type: in vivo, mice of Kunming strain; conditions: 50 m/1000 PBS/injection, angulus oculi medialis vein daily, 7 times; vs PBS control, P<0.05
Method: To confirm the biological effects of FpAT on the growth of mice deriving tumor in mice in vivo, a tumor suppression experiment was carried out in this example using liver cancer H22 cells tumor-bearing mouse model of mice of Kunming strain and osteosarcoma S180 cells tumor-bearing mouse model of mice of Kunming strain. Forty 5-week old mice of Kunming strain purchased from Animal Center Of Chinese Academy Of Medical Sciences were inoculated subcutaneously in forelimb with mouse liver cancer H22 cells (National Institute for the Control of Pharmaceutical and Biological Products) (5×10^6/100 μl/mouse) or osteosarcoma S180 cells (National Institute for the Control of Pharmaceutical and Biological Products) (5×10^6/100 μl/mouse). On the next day after inoculation, each kind of inoculated cells were divided into 2 groups randomly with 10 mice per group. FpAT ([…]) or vehicle (the solvent for peptide) control (PBS:100 μl/injection) were injected in angulus oculi medialis vein daily, 7 times in total. The mice were sacrificed by dislocating the neck on the next day after administration was stopped, and the tumors were taken and weighed for a statistical analysis.

[3] = test system: human umbilical vein endothelial cells (HUVECs); assay: Apoptosis of HUVECs (flow cytometry, DNA Ladder, RT-PCR, Western blotting); assay type: cell-based; conditions: 50 μg/ml PBS, 96 hours
Method: Human umbilical cord samples (obtained from Beijing Obstetrics & Gynecology Hospital) was digested with 0.1% collagenase I (available from GIBCO BRL company), followed by a centrifugation (1000 rpm, 10 minutes) to collect human umbilical vein endothelial cells (HUVECs). After suspended in 20% FCS/RPMI1640, the cells were transferred into plastic bottles for culture in CO2 incubator (37° C., 5% CO2). Twelve hours later, unattached cells were discarded by changing medium, and then the remaining cells were cultured conventionally with the medium changed every 3 days. The vehicle (PBS) and FpAT (50 μg/ml PBS) were added separately, and the cells were collected at 96 hours. Flow Cytometry: the cells were digested with 0.04% trypsin-EDTA, collected and washed 3 times with PBS; the cells were suspended by adding 200 μl PBS and aspirated gently to avoid formation of cell mass. 800 μl cold absolute alcohol was added, and then the cells was fixed at 4° C. overnight; and after a centrifugation at 1000×g for 5 min at 4° C., and the supernatant were discarded. The cells were washed twice with PBS, re-suspended with 200 μl PBS containing RNaseA at a concentration of 1 mg/ml, and incubated at 37° C. for 30 minutes. PI staining solution (final concentration of 50 μg/ml) was added, and the well mixed cells were subjected to a reaction at 4° C. for 30 minutes in the dark. The detection was performed on a flow cytometer. DNA Ladder analysis: the cells differently treated (PBS and FpAT) were collected by a centrifugation at 1000 rpm for 5 minutes, and the cells were lysed with lysis solution (10 mM Tris-HCl, 5 mM EDTA, 1% Triton-X 100, 10 mM NaCl, 100 μg/ml protease K), and aspirated repeatedly to cut viscous genomic DNA, which theoretically generates DNA fragments in a uniform size of 20 to 30 kb; phenols and chloroform were used to extract, and after precipitated with absolute ethanol, the total DNA were dissolved in TE or water, and treated with Rnase A at 37° C. for 1˜2 hours. Five microliters was taken for an electrophoresis on 1.8% agarose gel. […]

With “H2N-Asp-Ser-Gly-Glu-Gly-Asp-Phe-Leu-Ala-Glu-Gly-Gly-Gly-Val-Arg-COOH (H-DSGEGDFLAEGGGVR-OH; listed as Homo sapiens) [FpAT, fibrinopeptide A truncated, carboxyl terminal 15 amino acids of fibrinopeptide A]” the “suppressing rate of HUVEC proliferation” value [1] was 40.1%, the “growth of mouse liver cancer H22 cells in vivo (tumor mass)” value [2] was “could suppressed the growths” and the “DNA Ladder in total DNA of HUVECs” value [3] was “presence of plenty of DNA Ladder”. The “apoptosis of HUVECs by flow cytometry” value ([3]; PI staining) was “presence of an evidence apoptosis peak” and the “effect on cell cycle of HUVECs” value ([3]; flow cytometry) was “no remarkable effects on cell cycle”.
